# In patent publication US20050137145A1, “Metabolites of 1-dimethylamino-3-(3-methoxy-phenyl)-2-methyl-pentan-3-ol and their use in the treatment of urinary incontinence” (Gruenenthal GmbH, priority 2002, published 2005):
# Marks after values point to notes of the source that are not given here.
# Tested on: naive female Sprague-Dawley rats
# Test: Cystometry test system on the conscious naive rat
# Format: in vivo
# Settings: for BC bladder capacity (change relative to the preliminary value) / ICI inter-contraction interval (change relative to the preliminary value) / TP threshold pressure (change relative to the preliminary value): at maximum activity, mean of 3 miction cycles; for effect on bladder regulation (in words): summary of the cystometry results, i.v.
# Protocol: Cystometric investigations were carried out on naive female Sprague-Dawley rats according to the method of Ishizuka et al. ((1997), Naunyn-Schmiedeberg's Arch. Pharmacol. 355: 787-793). Three days after the implantation of bladder and venous catheters, the animals, which were free to move, were studied in the conscious state. The bladder catheter was attached to a pressure transducer and an injection pump. The animals were placed in metabolic cages which allowed the volume of urine to be measured. Physiological saline solution was infused into the emptied bladder (10 ml/h) and the bladder pressure and miction volume were recorded continuously. After a stabilization phase, a 20-minute phase characterised by normal, reproducible miction cycles was recorded. The following parameters, inter alia, were determined: • threshold pressure (TP, bladder pressure immediately before miction), • bladder capacity (BC, residual volume after previous miction plus volume of solution infused during the filling phase), • inter-contraction interval (ICI, the time interval between mictions).
# An increase in the threshold pressure (TP) indicates an important therapeutic activity in one of the indications according to the invention. The inter-contraction interval (ICI) is also an important parameter for measuring the physiological effectiveness of a substance in the treatment of urinary incontinence, as is the bladder capacity (BC). Because the causes of the symptoms of these disorders are highly heterogeneous, it is not necessary for all three parameters to be influenced positively in order for effectiveness to exist. It is, therefore, entirely satisfactory for a positive effect to be determined in only one of these parameters in order to be usable in urinary incontinence or increased urinary urgency.
# After three reproducible miction cycles had been recorded as the preliminary value, the test substances 1 (1.0 mg/kg), 2 (0.1; 0.3 and 0.5 mg/kg), 21 (0.5 mg/kg) and 7 (0.3 mg/kg) were administered i.v. in the vehicle=0.9% NaCl and the effect on the cystometric parameters was recorded for 90 to 120 minutes. At the maximum activity, the mean of 3 miction cycles was determined and indicated as the percentage change relative to the preliminary value (Table 1).
compound,measurement,setting,value
"CC[C@](O)(c1cccc(OC)c1)[C@H](C)CN(C)C.Cl (racemic) [Compound 1, (2RS,3RS)-1-Dimethylamino-3-(3-methoxy-phenyl)-2-methyl-pentan-3-ol, hydrochloride]",BC bladder capacity (change relative to the preliminary value),1.0 mg/kg i.v.,+31%***
same,ICI inter-contraction interval (change relative to the preliminary value),1.0 mg/kg i.v.,+42%
same,TP threshold pressure (change relative to the preliminary value),1.0 mg/kg i.v.,+94%**
"CCC(O)(c1cccc(O)c1)C(C)CN(C)C.Cl (racemic) [Compound 7, (2RS,3RS)-3-(3-Dimethylamino-1-ethyl-1-hydroxy-2-methyl-propyl)-phenol, hydrochloride]",BC bladder capacity (change relative to the preliminary value),0.3 mg/kg i.v.,+32%*
same,ICI inter-contraction interval (change relative to the preliminary value),0.3 mg/kg i.v.,+28%*
same,TP threshold pressure (change relative to the preliminary value),0.3 mg/kg i.v.,+95%**
"CC[C@](O)(c1cccc(OC)c1)[C@H](C)CN(C)C.Cl [Compound 2, (+)-(2R,3R)-1-Dimethylamino-3-(3-methoxy-phenyl)-2-methyl-pentan-3-ol, hydrochloride]",BC bladder capacity (change relative to the preliminary value),0.1 mg/kg i.v.,+7.8%
same,ICI inter-contraction interval (change relative to the preliminary value),0.1 mg/kg i.v.,+15.6%
same,TP threshold pressure (change relative to the preliminary value),0.1 mg/kg i.v.,+28.5%**
same,BC bladder capacity (change relative to the preliminary value),0.3 mg/kg i.v.,+33%*
same,ICI inter-contraction interval (change relative to the preliminary value),0.3 mg/kg i.v.,+28%*
same,TP threshold pressure (change relative to the preliminary value),0.3 mg/kg i.v.,+122%**
same,BC bladder capacity (change relative to the preliminary value),0.5 mg/kg i.v.,+20.6%*
same,ICI inter-contraction interval (change relative to the preliminary value),0.5 mg/kg i.v.,+28.6%**
same,TP threshold pressure (change relative to the preliminary value),0.5 mg/kg i.v.,+77.5%**
same,effect on bladder regulation (in words),,very effective
"CC[C@@](O)(c1cccc(OC)c1)[C@@H](C)CN(C)C.Cl [Compound 21, (−)-(2S,3S)-1-Dimethylamino-3-(3-methoxy-phenyl)-2-methyl-pentan-3-ol, hydrochloride]",BC bladder capacity (change relative to the preliminary value),0.5 mg/kg i.v.,+3%
same,ICI inter-contraction interval (change relative to the preliminary value),0.5 mg/kg i.v.,+10%
same,TP threshold pressure (change relative to the preliminary value),0.5 mg/kg i.v.,−1.1%
same,effect on bladder regulation (in words),,does not make such a strong contribution to the action
